Test results published in PubChem BioAssay (NCI).
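Following 48 hours of exposure in 96-well plates, responses at five concentrations were used to interpolate endpoints linearly. TGI: total growth inhibition.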

Assays:
Assay in all cases: DTP human tumour cell line panel, 48 h
A498 renal = tested on: A498 renal
A549 NSCLC = tested on: A549 NSCLC
ACHN renal = tested on: ACHN renal
BT-549 breast = tested on: BT-549 breast
CAKI-1 renal = tested on: CAKI-1 renal
CCRF-CEM leukemia = tested on: CCRF-CEM leukemia
COLO 205 colon = tested on: COLO 205 colon
DU-145 prostate = tested on: DU-145 prostate
EKVX NSCLC = tested on: EKVX NSCLC
HCC-2998 colon = tested on: HCC-2998 colon
HCT-116 colon = tested on: HCT-116 colon
HCT-15 colon = tested on: HCT-15 colon
HL-60(TB) leukemia = tested on: HL-60(TB) leukemia
HOP-62 NSCLC = tested on: HOP-62 NSCLC
HOP-92 NSCLC = tested on: HOP-92 NSCLC
HS 578T breast = tested on: HS 578T breast
HT29 colon = tested on: HT29 colon
IGROV1 ovarian = tested on: IGROV1 ovarian
K-562 leukemia = tested on: K-562 leukemia
KM12 colon = tested on: KM12 colon
LOX IMVI melanoma = tested on: LOX IMVI melanoma
MCF7 breast = tested on: MCF7 breast
MDA-MB-231 breast = tested on: MDA-MB-231 breast
MDA-MB-435 = tested on: MDA-MB-435
MDA-N = tested on: MDA-N
MOLT-4 leukemia = tested on: MOLT-4 leukemia
NCI-H226 lung = tested on: NCI-H226 lung
NCI-H460 lung = tested on: NCI-H460 lung
NCI-H522 lung = tested on: NCI-H522 lung
NCI/ADR-RES ovarian = tested on: NCI/ADR-RES ovarian
OVCAR-3 ovarian = tested on: OVCAR-3 ovarian
OVCAR-4 ovarian = tested on: OVCAR-4 ovarian
OVCAR-5 ovarian = tested on: OVCAR-5 ovarian
OVCAR-8 ovarian = tested on: OVCAR-8 ovarian
PC-3 prostate = tested on: PC-3 prostate
RPMI-8226 leukemia = tested on: RPMI-8226 leukemia
RXF 393 renal = tested on: RXF 393 renal
SF-295 CNS = tested on: SF-295 CNS
SF-539 CNS = tested on: SF-539 CNS
SK-MEL-2 melanoma = tested on: SK-MEL-2 melanoma
SK-MEL-28 melanoma = tested on: SK-MEL-28 melanoma
SK-MEL-5 melanoma = tested on: SK-MEL-5 melanoma
SK-OV-3 ovarian = tested on: SK-OV-3 ovarian
SN12C renal = tested on: SN12C renal
SNB-19 CNS = tested on: SNB-19 CNS
SNB-75 CNS = tested on: SNB-75 CNS
SR leukemia = tested on: SR leukemia
SW-620 colon = tested on: SW-620 colon
T-47D breast = tested on: T-47D breast
TK-10 renal = tested on: TK-10 renal
U251 CNS = tested on: U251 CNS
UACC-257 melanoma = tested on: UACC-257 melanoma
UACC-62 melanoma = tested on: UACC-62 melanoma
UO-31 renal = tested on: UO-31 renal
786-0 renal = tested on: 786-0 renal
M14 melanoma = tested on: M14 melanoma
MALME-3M melanoma = tested on: MALME-3M melanoma
NCI-H23 lung = tested on: NCI-H23 lung
SF-268 CNS = tested on: SF-268 CNS

Measured: TGI

O=C1OC[C@@H]2[C@@H](O)CCCCCN12
not listed: 786-0 renal | M14 melanoma | MALME-3M melanoma | NCI-H23 lung | SF-268 CNS
> 100 µM: all other assays above

COC(=O)CCc1cc(OC)c(O)c(C(Cc2ccc(OC)c(OC)c2)C(=O)OC)c1 (configuration not stated)
not listed: CAKI-1 renal
> 100 µM: all other assays above
